One may read the IC50 as the concentration that inhibits the measured activity by half.

In test [1] the target is T1, purified murine COX-2 (Mus musculus, UniProt Q05769).
T1 sequence (Q05769 18-604): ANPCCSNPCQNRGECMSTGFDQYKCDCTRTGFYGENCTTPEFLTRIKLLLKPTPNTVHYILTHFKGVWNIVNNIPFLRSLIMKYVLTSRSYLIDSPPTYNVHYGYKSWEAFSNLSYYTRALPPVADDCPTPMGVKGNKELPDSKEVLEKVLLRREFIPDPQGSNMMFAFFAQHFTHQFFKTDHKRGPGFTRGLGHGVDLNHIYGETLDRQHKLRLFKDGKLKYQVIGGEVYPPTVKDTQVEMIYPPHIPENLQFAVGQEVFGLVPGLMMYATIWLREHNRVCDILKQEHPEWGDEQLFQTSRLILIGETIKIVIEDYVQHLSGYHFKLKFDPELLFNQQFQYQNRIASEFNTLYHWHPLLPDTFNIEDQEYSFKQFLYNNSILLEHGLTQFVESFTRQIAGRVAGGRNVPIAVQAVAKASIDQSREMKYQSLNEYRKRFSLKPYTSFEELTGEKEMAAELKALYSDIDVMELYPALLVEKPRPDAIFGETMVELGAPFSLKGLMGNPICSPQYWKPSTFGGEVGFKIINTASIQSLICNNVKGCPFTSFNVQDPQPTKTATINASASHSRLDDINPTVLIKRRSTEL
Put plainly: Inhibition of mCOX-2 dependent oxygenation of 2-AG and AA by profens in vitro. The test is classed as biochemical. Also on record: made in house; host or cells: insect cells. The method, then:
Desired concentrations of inhibitor in DMSO or blank (DMSO) were incubated with mCOX-2 (40 nM) for 3 minutes in 100 mM Tris-HCl with 0.5 mM phenol, pH 8.0 at 37° C. After pre-incubation of enzyme and inhibitor, 5 μM of AA or 2-AG was added at 37° C. Thirty seconds later, the reaction was quenched with 200 μL of ice-cold ethyl acetate containing 0.5% acetic acid (v/v) and 1 μM PGE2-d4 and PGE2-G-d5. The solution was then vortexed and the aqueous layer frozen. The organic layer was removed and evaporated to near-dryness under nitrogen. The samples were reconstituted in 1:1 MeOH:H2O and chromatographed using a LUNA® C18(2) column (50 2 mm, 3 μm; Phenomenex, Torrance, Calif., United States of America). […] Analyte peak areas were normalized to the appropriate internal standard to determine the amount of product formation, and inhibition was determined by normalization to a DMSO control.

Test [2] deals with T1, purified murine COX-2. Put plainly: Inhibition of mCOX-2-dependent oxygenation of 2-AG and AA by lumiracoxib and derivatives in vitro. Further details: made in house; host or cells: insect cells; dose or concentration left out as unconfirmed. The test is classed as biochemical.
The test system of test [3] is brain eCB, AA and PG levels. Put plainly: Brain eCB, NAE, MAG, AA and PG levels after i.p. injection. The format is in vivo, mice. Conditions: 40 mg/kg. The method, then:
5-7 week old male ICR mice were used for all experiments with the exception of knockout animals (Harlan, Indianapolis, Ind., United States of America). Mice were housed 5 per […]. All behavioral tests were conducted during the light cycle between 0900 and 1700. KO and WT littermate controls for FAAH^(−/−) and COX-2^(−/−) mice were derived from heterozygote breeding pairs, bred and genotyped as described in Uddin et al., 2011. CB1^(−/−) mice were bred from homozygote breeding pairs and genotyped as described in Pan et al., 2008. Mice were group-housed on a 12:12 light-dark cycle (lights on at 06:00), with food and water available ad libitum. All animal studies were approved by the Vanderbilt Institutional Animal Care and Use Committee and conducted in accordance with the Guide for the Care and Use of Laboratory Animals of the United States National Institutes of Health.
Mice were sacrificed by cervical dislocation and decapitation. The brain, lungs, liver, stomach, small intestines, and kidneys were then rapidly removed and frozen on a metal block in dry ice. The tissue was then placed in a tube and stored at −80° C. until extraction, usually one day after harvesting. For PG and eCB analysis, lipid extraction from tissue was carried out as described in Patel et al., 2009.
Analytes were quantified using LC-MS/MS on a Quantum triple-quadrupole mass spectrometer in positive-ion mode using selected reaction monitoring. Detection of eicosanoids was performed as described in Kingsley & Marnett, 2007. For fatty acid analysis the mobile phases used were 80 μM AgOAc with 0.1% (v/v) acetic acid in H2O (solvent A) and 120 μM AgOAc with 0.1% (v/v) acetic acid in MeOH (solvent B). The analytes were eluted using a gradient from 20% A to 99% B over 5 minutes. The transitions used were m/z 300→282 for PEA, m/z 328→310 for SEA, m/z 434→416 for OEA, m/z 456→438 for AEA, m/z 464→446 for AEA-d8, m/z 331→257 for 2-PG, m/z 359→285 for 2-SG, m/z 463→389 for 2-OG, m/z 485→411 for 2-AG, m/z 493→419 for 2-AG-d8, m/z 519→409 for AA, and m/z 527→417 for AA-d8. Peak areas for the analytes were normalized to the appropriate internal standard and then normalized to tissue mass for in vivo samples.

Setting [4] is: 15 min incubation, read-out: Maximum inhibition of AA oxygenation (converted).
[5] abbreviates: inhibitor incubated with enzyme for 15 min before addition of substrate, read-out: AA IC50.

SMILES strings stand for the structures. Where two headings read alike, the source gives them in different places. Bounds are passed on as bounds.

As for `C[C@@H](C(=O)O)c1cccc(Oc2ccccc2)c1` [Compound 7d, (R)-Fenoprofen], the inhibition at 10 µM is 10% on purified murine COX-2 [1] (chiral profens, at 10 μM inhibitor, AA 5 μM, read-out: % Inhibition AA); under 50% at purified murine COX-2 [1] (read-out: IC50 (μM) 2-AG); 25% at purified murine COX-2 [1] (read-out: Maximum inhibition of 2-AG oxygenation, chiral profens, at 10 μM inhibitor, 2-AG 5 μM).
In the case of `C[C@@H](C(=O)O)c1cccc(C(=O)c2ccccc2)c1` [Compound 7e, (R)-ketoprofen], the IC50 at purified murine COX-2 [1] (chiral profens, murine COX-2 40 nM, 3 min preincubation, 2-AG 5 μM, mean ± SD, read-out: IC50 (μM) 2-AG) is 7.3 µM. For the same molecule, the inhibition at 10 µM on purified murine COX-2 [1] (read-out: % Inhibition AA) came to 20%; on purified murine COX-2 [1] (read-out: Maximum inhibition of 2-AG oxygenation) it was 56%.
`Cc1ccc(Nc2c(F)cccc2Cl)c(CC(=O)O)c1` [Compound 101]: at purified murine COX-2 [2] (read-out: AA IC50 (mM)), the inhibition is under 50%.
Consider `Cc1ccc(Nc2ccccc2Cl)c(CC(=O)O)c1` [Compound 102], for which the inhibition was 0% at purified murine COX-2 [2] (setting [4]) and under 50% at purified murine COX-2 [2] (setting [5]).
In the case of `Cc1ccc(Nc2ccccc2F)c(CC(=O)O)c1` [Compound 103], the inhibition is 0% on purified murine COX-2 [2] (setting [4]) and under 50% on purified murine COX-2 [2] (setting [5]).
For `Cc1ccc(Nc2ccccc2)c(CC(=O)O)c1` [Compound 104], in that order: 10% and under 50%.
On to `Cc1ccc(Nc2c(Cl)cccc2Cl)c(CC(=O)O)c1` [Compound 105], for which the inhibition on purified murine COX-2 [2] (setting [4]) was 60%.
Turning to `Cc1ccc(Nc2c(F)cccc2F)c(CC(=O)O)c1` [Compound 106], the inhibition is 0% on purified murine COX-2 [2] (setting [4]) and under 50% at purified murine COX-2 [2] (setting [5]).
Regarding `Cc1ccc(Nc2c(C)cccc2F)c(CC(=O)O)c1` [Compound 107], on purified murine COX-2 [2] (setting [5]), the inhibition is under 50%.
In the case of `Cc1ccc(Nc2c(Cl)cc(Cl)cc2Cl)c(CC(=O)O)c1` [Compound 108], the inhibition at purified murine COX-2 [2] (setting [4]) is 32%; on purified murine COX-2 [2] (setting [5]) it was under 50%.
Turning to `O=C(O)Cc1ccccc1Nc1c(F)cccc1Cl` [Compound 109], the inhibition on purified murine COX-2 [2] (read-out: AA IC50 (mM)) is under 50%.
With `O=C(O)Cc1ccccc1Nc1ccccc1Cl` [Compound 110], the inhibition at purified murine COX-2 [2] (read-out: AA IC50 (mM)) was under 50%.
Consider `O=C(O)Cc1ccccc1Nc1ccccc1F` [Compound 111], for which the inhibition at purified murine COX-2 [2] (setting [4]) is 0%; at purified murine COX-2 [2] (setting [5]), under 50%.
As to `O=C(O)Cc1ccccc1Nc1ccccc1` [Compound 112], the inhibition at purified murine COX-2 [2] (read-out: AA IC50 (mM)) is under 50%.
For the molecule `O=C(O)Cc1ccccc1Nc1c(F)cccc1F` [Compound 114], the inhibition on purified murine COX-2 [2] (read-out: AA IC50 (mM)) was under 50%.
As to `O=C(Oc1ccc([N+](=O)[O-])cc1)N1CCC(C(O)(c2ccc3c(c2)OCO3)c2ccc3c(c2)OCO3)CC1` [JZL-184, reference compound], the “Brain levels of 2-AG and 3 other MAG species” value in test [3] is listed as “increased”.

(Values after patent publication US20150183737A1, “COMPOSITIONS AND METHODS FOR SUBSTRATE-SELECTIVE INHIBITION OF ENDOCANNABINOID OXYGENATION” (Vanderbilt University, priority 2012, published 2015).)
